Key:
[1] = Binding affinity to influenza A/Beijing/262/95 H1N1 neuraminidase expressed in baculovirus expression system using sialyl-lactose as substrate
[2] = Inhibition of Influenza A virus (A/GuangdongSB/01/2009(H1N1)) neuraminidase using 4-MUNANA as substrate preincubated for 1 hr followed by substrate addition and measured after 1 hr by fluorescence assay
[3] = Inhibition of Influenza A virus (A/Guangdong/03/2009(H1N1)) neuraminidase using 4-MUNANA as substrate preincubated for 1 hr followed by substrate addition and measured after 1 hr by fluorescence assay
[4] = Inhibition of Influenza A virus (A/Guangdong/05/2009(H1N1)) neuraminidase using 4-MUNANA as substrate preincubated for 1 hr followed by substrate addition and measured after 1 hr by fluorescence assay

SMILES | Ki [1] [µM] | IC50 [2] [µM] | IC50 [3] [µM] | IC50 [4] [µM]
Nc1c(S(=O)(=O)O)cc(Nc2ccc(Nc3nc(Cl)nc(Nc4ccccc4S(=O)(=O)O)n3)c(S(=O)(=O)O)c2)c2c1C(=O)c1ccccc1C2=O | 2.9 | – | – | –
C/C=C/Oc1cc(C=O)ccc1O | – | 27 | 28 | 25
O=S(=O)(O)c1ccccc1Nc1nc(Cl)nc(Nc2ccccc2S(=O)(=O)O)n1 | 0.28 | – | – | –
O=S(=O)(O)c1cccc(Nc2nc(Cl)nc(Nc3cccc(S(=O)(=O)O)c3)n2)c1 | 0.13 | – | – | –

— BindingDB's records for PubMed 35367706 (University of Newcastle, 2022)
